From patent US4876284A, “1-alkyl-2-aminotetralin derivatives” (Per Arvid Emil Carlsson, priority 1981, dated 1989)

Key:
[1] = tested on: central DA-receptor (pre- and/or postsynaptic); assay: Rat-brain in-vivo tyrosine hydroxylation: Dopa accumulation after NSD 1015 in reserpine-pretreated rats; conditions: reserpine-pretreated rats
Protocol: The compounds under evaluation were tested biochemically for central DA-receptor (pre- and/or postsynaptic) stimulating activity. The concept of this biochemical screening method is that a DA-receptor agonist will stimulate the receptor and through regulatory feedback systems effect a decline in tyrosine hydroxylase activity and thus a subsequent reduction in the synthesis rate for DA in the presynaptic neuron. Dopa formation, as determined after in-vivo inhibition of the aromatic L-amino acid decarboxylase with NSD 1015 (3-hydroxybenzyl-hydrazine hydrochloride), is taken as an indirect measure of DA synthesis rate.
Rats (150-300 g) pretreated with reserpine were given the compounds under evaluation. Gross behavioural observations (changes in motility, stereotypies etc.) were made in order to evaluate possible postsynaptic dopamine receptor activity. subsequent administration of NSD 1015, decapitation, brain dissection [corpora striata, limbic fore-brain and rest of the hemispheral parts (cortex)]homogenization, centrifugation, ion-exchange chromatography and spectro-fluorimetric measurements (all as described in detail by Wikstrom et al., in J. Med. Chem. 21, 864-867, 1978 and references cited therein), gave the actual Dopa levels.
Several doses (n=4-6) were tested in order to obtain dose-response curves for each compound and brain area. The dose of a compound producing a half-maximal decrease in the Dopa level in the rat brain part was then estimated. These values (ED50) are presented in Table I. (Simultaneous determination of the 5-HTP levels was also performed utilizing the same paradigm.)
^b Rats pretreated with reserpine (10 mg/kg i.p.; 18 h) were given th
compounds under evaluation. Fortyfive minutes later they were injected
with NSD 1015 (100 mg/kg i.p.) and after a further 30 min they were
decapitated, the brains rapidly dissected and taken for determination of
the Dopa and 5HTP levels in different areas of the brain. The dose of a
compound producing a halfmaximal decrease (ED50) in the Dopa level i
the rat brain part was then estimated from doseresponse curves comprising
4-6 dose levels. (For further details see the text and references).

[2] = tested on: postsynaptic DA receptors; assay: Antagonism of the reserpine plus α-methyl-para-tyrosine-induced immobility (neuroleptic syndrome) in rats; motor activity; conditions: for Motor activity: reserpine 10 mg/kg + α-methyl-para-tyrosine 250 mg/kg i.p., means ± s.e.m.
[3] = tested on: central DA-receptor (pre- and/or postsynaptic); conditions: reserpine-pretreated rats, s.c., cited from earlier work
DA autoreceptors = assay: Spontaneous locomotor activity in non-pretreated rats; type: in vivo, rat; conditions: non-pretreated rats
Protocol: Untreated animals exposed to a new environment display an initial high motor activity which then gradually declines over a period of time. Administration of DA-receptor agonists (e.g. apomorphine) in doses where preferential autoreceptor stimulation is likely to occur, causes a depression of the spontaneous motility mentioned above, considered to be due to the DA autoreceptor-medicated attenuation of central DA transmission.
Rats (150-300 g) were injected subcutaneously with compound 2,5-OH-DPAT or apomorphine and after 5 minutes they were individually placed in motility boxes ("M/P 40 Fc Electronic Motility Meter". Motron Products, Stockholm) and the motor activity (0-30 min) was quantified. […] These findings are in congruence with the results obtained with the selective DA-autoreceptor agonist 3-PPP [S. Hjorth t al., Life Sciences, 28, 1225 (1981)] but in sharp contrast to the results obtained with 5-OH-DPAT and apomorphine (Table III).
Non-pretreated rats were given compound -2 (0.0625-16.0 mg/kg),
5OH--2-(di-n-propylamino) tetralin (5OH--DPAT; 0.0125-0.05 mg/kg,
apomorphine (0.1-1.0 mg/kg) or saline subcutaneously. Five minutes later
they were placed individually into motility meters and the locomotor

[4] = reserpine and α-methyl-para-tyrosine pretreated rats

Structure (SMILES): CCCNC1CCc2c(O)cccc2C1(C)C (stereo not shown) [1,1-di-CH35-OHPAT, 1,1di-CH35-OH2-(n-propylamino)tetralin]
- Dopa-accumulation; ED50, Limbic (class symbol) ([1]; limbic forebrain, s.c.): I (Inactive. ED50 > 45 μmol/kg.)
- biochemical activity (Dopa accumulation), in words ([1]; inactive even at 45 μmol/kg): completely inactive
- Dopa-accumulation; ED50, Striatum (class symbol) ([1]; striatum, s.c.): I (Inactive. ED50 > 45 μmol/kg.)

Structure (SMILES): CCCN1CCCC(c2cccc(O)c2)C1 (stereo not shown) [Compound 3-PPP, 3-(3-hydroxyphenyl)-N-n-propylpiperidine]
- Dopa-accumulation; ED50, Limbic ([1]; limbic forebrain, half-maximal decrease in Dopa level, s.c.): 3.6 μmol/kg s.c.
- Dopa-accumulation; ED50, Striatum ([1]; striatum, half-maximal decrease in Dopa level, s.c.): 3.6 μmol/kg s.c.
- Motor activity ([2]; 10 mg/kg s.c.): 51 ± 19 counts 0-60 min
- antagonism of the reserpine-induced syndrome / behaviour elicited [2, 4]: inability of compound 2 to antagonize the reserpine-induced syndrome is shared by the selective Da-autoreceptor agonist 3-PPP

Structure (SMILES): CCCN(CCC)C1CCc2c(O)cccc2C1 (stereo not shown) [Compound 5-OHDPAT, 5-hydroxy-2-(di-n-propylamino)tetralin]
- Dopa-accumulation; ED50, Limbic (taken from Hacksell et al., J. Med. Chem. 22, 1469 (1979)) ([3]; limbic forebrain): 0.111 μmol/kg s.c.
- Dopa-accumulation; ED50, Striatum (taken from Hacksell et al., J. Med. Chem. 22, 1469 (1979)) ([3]; striatum): 0.009 μmol/kg s.c.
- Locomotor activity (DA autoreceptors; 0.0125 mg/kg s.c.): 84 ± 11 counts 0.30 min
- Locomotor activity (DA autoreceptors; 0.05 mg/kg s.c.): 380 ± 24 counts 0.30 min
- effect on locomotor activity, in words (DA autoreceptors; s.c.): lower doses significantly suppressing and higher dosess significantly stimulating the rat locomotor activity
- Motor activity ([2]; 0.75 mg/kg s.c.): 620 ± 20 counts 0-60 min
- motor response / postsynaptic DA-receptor stimulatory effects ([2]; comparative study, Table II, s.c.): strong central postsynaptic DA-receptor stimulatory effects
- antagonism of the reserpine-induced syndrome / behaviour elicited [2, 4]: pronounced stereotyped and hyperactive behaviour
- postsynaptic DA-receptor stimulation [2, 4]: efficient postsynaptic DA-receptor stimulants
